Each block holds one molecule with its values, some of them ahead of it. Active and inactive are the calls of the source. The rule behind the calls is not given here.
Experiments:
[1] = target: Kappa-type opioid receptor (Rattus norvegicus) (UniProt P34975); assay: KAPPA/R Eurofins SafetyScreen44 (BI); conditions: Compound concentration 10.0 uM
[2] = target: 5-hydroxytryptamine receptor 1D (Homo sapiens) (UniProt P28221); conditions: Compound concentration 10.0 uM
[3] = target: Dual specificity mitogen-activated protein kinase kinase 2 (Homo sapiens) (UniProt P36507); assay: MAP2K2 Invitrogen Lab (UK) kinase screen (BI); conditions: Compound concentration 1.0 uM
[4] = target: Phosphatidylinositol 4,5-bisphosphate 3-kinase catalytic subunit gamma isoform (Homo sapiens) (UniProt P48736); assay: PIK3CG Invitrogen Lab (UK) kinase screen (BI); conditions: Compound concentration 1.0 uM
[5] = target: Delta-type opioid receptor (Homo sapiens) (UniProt P41143); conditions: Compound concentration 10.0 uM
[6] = target: RAC-beta serine/threonine-protein kinase (Homo sapiens) (UniProt P31751); assay: AKT2 Invitrogen Lab (UK) kinase screen (BI); conditions: Compound concentration 1.0 uM
[7] = target: T1, Alpha-2A adrenergic receptor (Homo sapiens) (UniProt P08913); conditions: Compound concentration 10.0 uM
T1 sequence (whole entry): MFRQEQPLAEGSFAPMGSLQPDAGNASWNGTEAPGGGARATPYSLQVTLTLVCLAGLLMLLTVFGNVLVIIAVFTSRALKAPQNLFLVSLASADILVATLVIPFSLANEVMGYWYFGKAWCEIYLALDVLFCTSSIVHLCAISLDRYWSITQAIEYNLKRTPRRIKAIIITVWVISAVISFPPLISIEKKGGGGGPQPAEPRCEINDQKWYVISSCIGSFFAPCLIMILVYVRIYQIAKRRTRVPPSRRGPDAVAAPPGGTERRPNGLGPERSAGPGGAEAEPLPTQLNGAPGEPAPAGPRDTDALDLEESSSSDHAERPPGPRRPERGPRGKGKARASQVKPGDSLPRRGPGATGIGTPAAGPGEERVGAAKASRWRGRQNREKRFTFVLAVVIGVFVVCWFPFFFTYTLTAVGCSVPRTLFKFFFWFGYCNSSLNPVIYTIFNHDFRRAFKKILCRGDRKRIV

[8] = target: D(1A) dopamine receptor (Homo sapiens) (UniProt P21728); conditions: Compound concentration 10.0 uM
[9] = target: Serine/threonine-protein kinase Chk2 (Homo sapiens) (UniProt O96017); assay: CHEK2 Invitrogen Lab (UK) kinase screen (BI); conditions: Compound concentration 1.0 uM
[10] = target: T2, Muscarinic acetylcholine receptor M2 (Homo sapiens) (UniProt P08172); conditions: Compound concentration 10.0 uM
T2 sequence (whole entry): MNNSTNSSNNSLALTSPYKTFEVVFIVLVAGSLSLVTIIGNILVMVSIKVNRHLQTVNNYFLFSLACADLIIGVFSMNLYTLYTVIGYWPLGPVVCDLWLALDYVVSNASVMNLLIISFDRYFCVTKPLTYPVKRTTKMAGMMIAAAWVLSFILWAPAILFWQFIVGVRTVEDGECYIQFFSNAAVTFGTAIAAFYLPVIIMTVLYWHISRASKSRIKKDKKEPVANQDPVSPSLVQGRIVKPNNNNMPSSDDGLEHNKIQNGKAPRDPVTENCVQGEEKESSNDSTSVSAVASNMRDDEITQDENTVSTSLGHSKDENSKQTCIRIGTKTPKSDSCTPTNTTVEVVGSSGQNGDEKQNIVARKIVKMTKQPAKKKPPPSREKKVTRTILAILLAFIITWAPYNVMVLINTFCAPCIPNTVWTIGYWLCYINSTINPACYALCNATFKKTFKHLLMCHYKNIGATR

[11] = target: Kappa-type opioid receptor (Homo sapiens) (UniProt P41145); conditions: Compound concentration 10.0 uM
[12] = target: B-cell lymphoma 6 protein (Homo sapiens, UniProt P41182); assay: BCL6::NCOR LUMIER in cells
[13] = system: Voltage-gated K+ channel Kv1 (Rattus norvegicus); assay: K+/VOLT/RA Eurofins SafetyScreen44 (BI); conditions: rat brain, probe [125I]a-dendrotoxin, read-out: % Ctrl
[14] = target: Serine/threonine-protein kinase Chk1 (Homo sapiens) (UniProt O14757); assay: CHEK1 Invitrogen Lab (UK) kinase screen (BI); conditions: Compound concentration 1.0 uM
[15] = target: Focal adhesion kinase 1 (Homo sapiens) (UniProt Q05397); assay: PTK2 Invitrogen Lab (UK) kinase screen (BI); conditions: Compound concentration 1.0 uM
[16] = target: GABA-A receptor; anion channel (Rattus norvegicus) (UniProt O09028+P15431+P18506+P18508+P19969+P20236+P23574+P23576+P28471+P28473+P30191+P62813+P63079+P63138+Q91ZM7+Q9ES14); conditions: Compound concentration 10.0 uM
[17] = target: Mitogen-activated protein kinase 14 (Homo sapiens) (UniProt Q16539); assay: MAPK14 Invitrogen Lab (UK) kinase screen (BI); conditions: Compound concentration 1.0 uM
[18] = target: Proto-oncogene tyrosine-protein kinase receptor Ret (Homo sapiens) (UniProt P07949); assay: RET Invitrogen Lab (UK) kinase screen (BI); conditions: Compound concentration 1.0 uM
[19] = target: Serine/threonine-protein kinase Nek1 (Homo sapiens) (UniProt Q96PY6); assay: NEK1 Invitrogen Lab (UK) kinase screen (BI); conditions: Compound concentration 1.0 uM
[20] = target: Mitogen-activated protein kinase 9 (Homo sapiens) (UniProt P45984); assay: MAPK9 Invitrogen Lab (UK) kinase screen (BI); conditions: Compound concentration 1.0 uM
[21] = target: 5-hydroxytryptamine receptor 2B (Homo sapiens) (UniProt P41595); conditions: Compound concentration 10.0 uM
[22] = target: 5-hydroxytryptamine receptor 5A (Homo sapiens) (UniProt P47898); conditions: Compound concentration 10.0 uM
[23] = target: Ribosomal protein S6 kinase alpha-4 (Homo sapiens) (UniProt O75676); assay: RPS6KA4 Invitrogen Lab (UK) kinase screen (BI); conditions: Compound concentration 1.0 uM
[24] = target: BDNF/NT-3 growth factors receptor (Homo sapiens) (UniProt Q16620); assay: NTRK2 Invitrogen Lab (UK) kinase screen (BI); conditions: Compound concentration 1.0 uM
[25] = target: Mitogen-activated protein kinase 8 (Homo sapiens) (UniProt P45983); assay: MAPK8 Invitrogen Lab (UK) kinase screen (BI); conditions: Compound concentration 1.0 uM
[26] = target: Insulin receptor (Homo sapiens) (UniProt P06213); assay: INSR Invitrogen Lab (UK) kinase screen (BI); conditions: Compound concentration 1.0 uM
[27] = target: Fibroblast growth factor receptor 1 (Homo sapiens) (UniProt P11362); assay: FGFR1 Invitrogen Lab (UK) kinase screen (BI); conditions: Compound concentration 1.0 uM
[28] = target: Sodium-dependent serotonin transporter (Homo sapiens) (UniProt P31645); conditions: Compound concentration 10.0 uM
[29] = target: B-cell CLL/lymphoma 6 member B protein (Homo sapiens, UniProt Q8N143); assay: SPR (BCL6B), Ontario institute for cancer research
[30] = system: Voltage-gated K+ channel Kv1 (Rattus norvegicus); assay: K+/VOLT/RA Eurofins SafetyScreen44 (BI); conditions: rat brain, probe [125I]a-dendrotoxin, read-out: % Ctrl; remark: listed apart in the source

5-hydroxytryptamine receptor 5A (Homo sapiens), sequence (P47898 whole entry): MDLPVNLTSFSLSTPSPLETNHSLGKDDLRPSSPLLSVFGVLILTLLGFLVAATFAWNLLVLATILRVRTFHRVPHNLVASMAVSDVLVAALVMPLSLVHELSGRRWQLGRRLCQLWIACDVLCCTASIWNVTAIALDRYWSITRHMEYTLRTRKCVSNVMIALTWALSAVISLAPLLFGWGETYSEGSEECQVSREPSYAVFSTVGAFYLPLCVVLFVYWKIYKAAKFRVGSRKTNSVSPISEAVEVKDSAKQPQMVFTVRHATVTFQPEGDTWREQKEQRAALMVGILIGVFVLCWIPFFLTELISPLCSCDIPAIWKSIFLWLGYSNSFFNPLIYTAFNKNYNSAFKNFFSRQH
Kappa-type opioid receptor (Homo sapiens), sequence (P41145 whole entry): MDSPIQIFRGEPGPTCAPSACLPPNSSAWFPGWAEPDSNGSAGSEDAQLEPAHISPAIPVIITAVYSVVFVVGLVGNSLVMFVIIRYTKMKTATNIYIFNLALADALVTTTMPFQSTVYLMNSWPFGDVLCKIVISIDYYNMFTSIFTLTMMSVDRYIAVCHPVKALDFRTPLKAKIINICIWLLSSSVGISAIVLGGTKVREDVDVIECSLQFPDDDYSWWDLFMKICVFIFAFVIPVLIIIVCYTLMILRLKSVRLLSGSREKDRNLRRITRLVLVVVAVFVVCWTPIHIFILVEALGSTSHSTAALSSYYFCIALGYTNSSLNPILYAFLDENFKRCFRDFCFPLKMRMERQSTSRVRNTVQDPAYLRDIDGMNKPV
D(1A) dopamine receptor (Homo sapiens), sequence (P21728 whole entry): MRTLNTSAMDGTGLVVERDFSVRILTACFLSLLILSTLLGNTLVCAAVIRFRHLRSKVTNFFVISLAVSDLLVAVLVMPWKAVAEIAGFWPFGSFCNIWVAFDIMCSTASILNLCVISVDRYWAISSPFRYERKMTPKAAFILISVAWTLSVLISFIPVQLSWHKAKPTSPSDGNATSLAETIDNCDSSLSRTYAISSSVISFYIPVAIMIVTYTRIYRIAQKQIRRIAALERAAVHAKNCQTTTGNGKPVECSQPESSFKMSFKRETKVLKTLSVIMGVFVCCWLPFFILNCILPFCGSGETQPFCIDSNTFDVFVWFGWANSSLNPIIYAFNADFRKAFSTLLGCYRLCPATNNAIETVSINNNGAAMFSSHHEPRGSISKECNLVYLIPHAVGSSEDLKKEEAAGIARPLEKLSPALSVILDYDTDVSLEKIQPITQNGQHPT
Sodium-dependent serotonin transporter (Homo sapiens), sequence (P31645 whole entry, looked up): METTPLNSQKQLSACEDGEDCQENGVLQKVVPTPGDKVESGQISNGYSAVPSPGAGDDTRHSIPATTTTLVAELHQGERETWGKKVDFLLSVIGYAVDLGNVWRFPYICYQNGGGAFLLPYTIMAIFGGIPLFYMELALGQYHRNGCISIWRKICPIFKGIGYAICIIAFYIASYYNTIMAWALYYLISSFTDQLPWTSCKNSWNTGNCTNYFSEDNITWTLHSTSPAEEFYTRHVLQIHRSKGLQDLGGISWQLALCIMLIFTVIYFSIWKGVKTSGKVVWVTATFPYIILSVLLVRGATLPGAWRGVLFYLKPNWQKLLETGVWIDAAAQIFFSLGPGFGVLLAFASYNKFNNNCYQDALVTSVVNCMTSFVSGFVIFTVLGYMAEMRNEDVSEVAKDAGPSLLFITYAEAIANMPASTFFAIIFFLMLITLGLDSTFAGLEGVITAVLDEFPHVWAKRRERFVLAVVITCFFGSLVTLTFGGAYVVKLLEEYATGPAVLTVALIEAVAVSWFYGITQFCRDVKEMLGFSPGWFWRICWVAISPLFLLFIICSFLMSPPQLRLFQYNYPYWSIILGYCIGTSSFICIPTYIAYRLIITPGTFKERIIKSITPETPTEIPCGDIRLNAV
5-hydroxytryptamine receptor 2B (Homo sapiens), sequence (P41595 whole entry): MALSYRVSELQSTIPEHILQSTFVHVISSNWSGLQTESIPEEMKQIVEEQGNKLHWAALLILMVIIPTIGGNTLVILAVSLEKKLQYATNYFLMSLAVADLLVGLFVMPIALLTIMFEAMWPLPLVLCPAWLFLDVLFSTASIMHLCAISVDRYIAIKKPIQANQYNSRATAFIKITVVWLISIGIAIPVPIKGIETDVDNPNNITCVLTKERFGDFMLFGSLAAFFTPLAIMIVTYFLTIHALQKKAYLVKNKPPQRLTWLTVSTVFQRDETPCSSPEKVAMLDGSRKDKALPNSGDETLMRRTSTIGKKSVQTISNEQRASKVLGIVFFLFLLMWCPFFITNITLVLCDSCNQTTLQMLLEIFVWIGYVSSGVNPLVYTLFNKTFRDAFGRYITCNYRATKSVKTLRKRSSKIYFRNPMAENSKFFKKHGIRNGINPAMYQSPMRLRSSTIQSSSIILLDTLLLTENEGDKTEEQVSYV
Delta-type opioid receptor (Homo sapiens), sequence (P41143 whole entry): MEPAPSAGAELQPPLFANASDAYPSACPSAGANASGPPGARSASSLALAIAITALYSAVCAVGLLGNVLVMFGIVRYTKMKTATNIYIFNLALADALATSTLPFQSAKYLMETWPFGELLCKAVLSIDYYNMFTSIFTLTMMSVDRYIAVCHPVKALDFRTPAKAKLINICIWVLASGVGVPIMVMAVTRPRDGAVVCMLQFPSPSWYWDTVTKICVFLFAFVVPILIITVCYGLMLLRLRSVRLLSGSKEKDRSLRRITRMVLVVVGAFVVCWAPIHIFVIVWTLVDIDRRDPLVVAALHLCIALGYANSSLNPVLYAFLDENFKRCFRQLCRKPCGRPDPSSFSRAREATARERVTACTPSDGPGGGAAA
5-hydroxytryptamine receptor 1D (Homo sapiens), sequence (P28221 whole entry): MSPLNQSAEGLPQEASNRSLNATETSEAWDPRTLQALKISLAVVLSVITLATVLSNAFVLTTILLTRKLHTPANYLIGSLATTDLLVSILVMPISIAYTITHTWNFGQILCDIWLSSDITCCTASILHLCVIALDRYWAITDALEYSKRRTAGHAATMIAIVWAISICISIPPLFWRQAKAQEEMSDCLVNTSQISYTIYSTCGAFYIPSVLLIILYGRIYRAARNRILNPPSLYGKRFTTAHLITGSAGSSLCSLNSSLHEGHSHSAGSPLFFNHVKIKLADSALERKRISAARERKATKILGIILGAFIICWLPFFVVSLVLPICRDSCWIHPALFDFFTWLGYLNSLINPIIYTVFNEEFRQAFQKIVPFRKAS
B-cell CLL/lymphoma 6 member B protein, sequence (Q8N143 whole entry): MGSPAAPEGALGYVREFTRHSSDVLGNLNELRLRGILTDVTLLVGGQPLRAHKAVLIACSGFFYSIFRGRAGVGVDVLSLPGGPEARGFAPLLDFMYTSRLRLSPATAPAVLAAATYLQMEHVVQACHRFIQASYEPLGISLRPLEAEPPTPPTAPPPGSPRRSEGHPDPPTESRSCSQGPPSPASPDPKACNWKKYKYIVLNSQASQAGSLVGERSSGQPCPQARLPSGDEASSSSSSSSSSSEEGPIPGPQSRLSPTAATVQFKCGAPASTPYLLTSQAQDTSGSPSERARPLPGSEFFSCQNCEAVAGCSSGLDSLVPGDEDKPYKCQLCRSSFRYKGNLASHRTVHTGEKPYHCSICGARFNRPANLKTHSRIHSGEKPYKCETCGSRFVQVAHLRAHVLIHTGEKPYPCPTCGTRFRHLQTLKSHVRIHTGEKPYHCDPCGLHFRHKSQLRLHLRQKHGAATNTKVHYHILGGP
Phosphatidylinositol 4,5-bisphosphate 3-kinase catalytic subunit gamma isoform (Homo sapiens), sequence (P48736 whole entry, looked up, canonical isoform): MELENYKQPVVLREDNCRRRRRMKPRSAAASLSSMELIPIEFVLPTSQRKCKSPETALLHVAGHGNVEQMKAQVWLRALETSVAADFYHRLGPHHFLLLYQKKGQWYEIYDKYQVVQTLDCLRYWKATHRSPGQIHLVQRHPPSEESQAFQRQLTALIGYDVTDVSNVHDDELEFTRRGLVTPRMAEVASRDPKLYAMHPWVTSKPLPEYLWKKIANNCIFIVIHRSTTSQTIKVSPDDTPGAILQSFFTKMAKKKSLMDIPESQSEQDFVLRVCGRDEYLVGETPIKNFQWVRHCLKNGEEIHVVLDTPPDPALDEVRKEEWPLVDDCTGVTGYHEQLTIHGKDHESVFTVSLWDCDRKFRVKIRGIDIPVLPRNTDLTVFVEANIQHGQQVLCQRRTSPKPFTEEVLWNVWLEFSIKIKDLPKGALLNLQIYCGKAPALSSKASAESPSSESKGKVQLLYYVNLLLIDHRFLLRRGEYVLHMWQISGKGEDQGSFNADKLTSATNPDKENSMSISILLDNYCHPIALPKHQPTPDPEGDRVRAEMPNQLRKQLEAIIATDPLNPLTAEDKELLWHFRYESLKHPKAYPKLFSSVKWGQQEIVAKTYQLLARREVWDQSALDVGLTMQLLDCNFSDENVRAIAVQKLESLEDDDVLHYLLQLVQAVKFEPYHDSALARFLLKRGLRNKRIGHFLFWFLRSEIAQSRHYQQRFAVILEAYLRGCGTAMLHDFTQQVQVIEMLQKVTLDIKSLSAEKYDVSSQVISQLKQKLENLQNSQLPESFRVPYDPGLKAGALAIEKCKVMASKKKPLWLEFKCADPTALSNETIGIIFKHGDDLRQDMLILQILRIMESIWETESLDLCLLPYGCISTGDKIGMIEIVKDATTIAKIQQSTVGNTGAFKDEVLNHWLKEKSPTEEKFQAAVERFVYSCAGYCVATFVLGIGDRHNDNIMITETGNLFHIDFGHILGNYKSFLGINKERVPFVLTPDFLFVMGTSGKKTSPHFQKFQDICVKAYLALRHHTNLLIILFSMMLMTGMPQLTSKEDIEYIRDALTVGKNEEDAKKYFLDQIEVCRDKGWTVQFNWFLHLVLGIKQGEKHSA
Mitogen-activated protein kinase 14 (Homo sapiens), sequence (Q16539 whole entry): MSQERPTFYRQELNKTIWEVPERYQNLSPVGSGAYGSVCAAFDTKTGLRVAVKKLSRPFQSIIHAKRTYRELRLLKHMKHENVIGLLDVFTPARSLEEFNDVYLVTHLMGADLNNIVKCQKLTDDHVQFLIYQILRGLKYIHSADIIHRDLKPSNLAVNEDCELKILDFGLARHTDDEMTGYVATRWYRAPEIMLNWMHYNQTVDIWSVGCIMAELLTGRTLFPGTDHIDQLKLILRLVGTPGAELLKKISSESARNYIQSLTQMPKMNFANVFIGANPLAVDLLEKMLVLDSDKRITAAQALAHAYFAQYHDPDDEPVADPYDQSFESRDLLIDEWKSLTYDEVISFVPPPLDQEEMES

inhibition [2]: 13.7%
residual activity [3]: 111%
residual activity [4]: 95%
inhibition [5]: 13.3%
residual activity [6]: 96%
inhibition [7]: 5.49%
inhibition [8]: -4.07%
residual activity [9]: 96%
inhibition [10]: -5.1%
inhibition [11]: 33.5%
IC50 [12]: 43 nM (active)
residual activity [14]: 89%
residual activity [15]: 106%
inhibition [16]: 20.9%
residual activity [17]: 100%
residual activity [18]: 101%
residual activity [19]: 101%
residual activity [20]: 110%
inhibition [21]: -5.25%
inhibition [22]: 0.2%
residual activity [23]: 99%
residual activity [24]: 99%
residual activity [25]: 120%
residual activity [26]: 100%
residual activity [27]: 111%
inhibition [28]: 2.53%
SMILES: CNC(=O)COc1cc2cc(Nc3nc(N4C[C@H](C)C[C@H](C)C4)ncc3Cl)ccc2n(C)c1=O
residual activity [1]: 89%
activity at 10 µM [13]: 105% (not active)

Kd [29]: No binding
SMILES: C[C@@H]1C[C@H](C)CN(c2ncc(Cl)c(Nc3ccc4c(c3)cc(OC(C)(C)C(=O)O)c(=O)n4C)n2)C1
activity at 10 µM [30]: 97% (not active)
